Data as given in patent US20240140931A1, “TRICYCLIC COMPOUNDS AND USES THEREOF” (HUTCHMED LIMITED, priority 2021, published 2024).
pIC50: −log10 of the molar value.

Experiments:
[1] = system: Miapaca2 3D spheroids; experiment: Assay of cell proliferation on Miapaca2 3D spheroids; type: cell-based; settings: Homo sapiens, MIA PaCa-2, 120 h, CellTiter-Glo 3D, 5 days treatment
Protocol: Example 4 Assay of Cell Proliferation on Miapaca2 3D Spheroids
1. Reagents and Materials • CellTiter-Glo® 3D Cell Viability Assay Kit: Promega, Cat #G9683; • CellCarrier Spheroid ULA 96-well plate: Corning, Cat #4515; • Instrument: Envision, Perkinelmer; • Cell line: Miapaca2, ATCC, Cat #CRL-1420.
2. Preparation of Reaction Solutions • The test compound was dissolved in DMSO and diluted with DMSO to 3000.0 μM, and the compound was further 3-fold diluted with DMSO to: 1000.0, 333.3, 111.1, 37.0, 12.3, 4.1, and 1.4 μM. Then 2 μL of the compound at different dilution concentrations was added to 198 μL of a 1640 medium to prepare a 10× test compound, wherein DMSO was at the concentration of 1% (DMSO was at the final concentration of 0.1%).
3. Experimental Methods • Day0: Digest cells and count cell numbers. Miapaca2 cells were inoculated into a spheroid ULA 96-well plate at a density of 300 cells/well at 100 μL/well and cultured in a cell incubator at 5% CO2 and 37° C. • Day2: The cell spheroids formed at day2. Add 10 μL of 10× test compounds to the 96-well plate. To the cell positive control well was added 10 μL of 1% DMSO 1640 medium. Incubate the cell spheroids in a cell incubator at 5% CO2 and 37° C. for additional 5 days. • Cell viability assay: Add 50 μL of CellTiter-Glo reagent to each well, place the plate in a microplate shaker, and lysis under shaking at 900 rpm at room temperature for 5 minutes. Then incubate the plate at room temperature in the dark for 30 minutes. • The luminescene of each well was detected on Envision2104.
Cell Survial %=(Lum(d7 treatment)−Lum(d2 cell))/(Lum(d7 cell)−Lum(d2 cell))×100
Wherein: • Lum(d7 treatment) refers to the luminescene of the test compound treated cells on day7; • Lum(d2 cell) refers to the luminescene of the 0.1% DMSO treated Miapaca2 cells on day2; • Lum(d7 cell) refers to the luminescene of the 0.1% DMSO treated Miapaca2 cells on day7. • IC50 values were calculated following formula 205: y=A+((B−A)/(1+((C/X)^D))), by using the XL-Fit 5.0 software.

[2] = biological target: Human full-length SHP2 recombinant protein (Homo sapiens (Human), UniProt Q06124); experiment: Assay of full-length SHP2 phosphatase activity; type: biochemical; settings: DiFMUP substrate, with activating peptide
Method in brief: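 Readout: DiFMUP hydrolysis fluorescence (355/460 nm) after 60 min at 25 °C, following 30 min RT preincubation of compound with peptide-activated full-length human SHP2. Controls were 1% DMSO with or without enzyme; IC50 by four-parameter logistic fit.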

[3] = system: pERK1/2 (Thr202/Tyr204) in Miapaca2 cells; experiment: Assay of intracellular pERK1/2 (Thr202/Tyr204) phosphorylation; type: cell-based; settings: Homo sapiens, MIA PaCa-2, 2 h, pERK1/2 (Thr202/Tyr204) HTRF
Method in brief: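 HTRF read-out (665/615 nm) of phospho-ERK1/2 Thr202/Tyr204 in lysates from Miapaca2 cells exposed for 2 h to 3-fold compound dilutions at 0.5% final DMSO. Controls: lysis buffer without cells and DMSO-treated cells; IC50 from four-parameter logistic fit.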

Structure (SMILES)	pIC50 [1]	pIC50 [2]	pIC50 [3]
CNC(=O)C#Cc1ccc2c(c1)[C@@H](N)C1(CCN(c3cnc(Sc4cccnc4C(F)(F)F)cn3)CC1)C2 [Compound 242]	8.70	9.15	7.89
C#Cc1ccc2c(c1)[C@@H](N)C1(CCN(c3cc(=O)n(-c4cccc(Cl)c4Cl)c(N)n3)CC1)C2 [Compound 245]	7.77	> 9.30	7.92
CCNC(=O)C#Cc1ccc2c(c1)[C@@H](N)C1(CCN(c3ncc(Sc4ccnc(N)c4Cl)nn3)CC1)C2 [Compound 249]	7.72	9.00	7.51
CNC(=O)C#Cc1ccc2c(c1)[C@@H](N)C1(CCN(c3ncc(Sc4ccnc(N)c4Cl)nn3)CC1)C2 [Compound 250]	7.85	9.00	7.14
CNC(=O)C#Cc1ccc2c(c1)[C@@H](N)C1(CCN(c3cnc(N4CCCc5ncccc54)cn3)CC1)C2 [Compound 251]	7.54	9.00	7.62
C#Cc1ccc2c(c1)[C@@H](N)C1(CCN(c3cnc(Sc4ccnc(N)c4Cl)cn3)CC1)C2 [Compound 252]	9.00	9.00	8.52
CNC(=O)C#Cc1ccc2c(c1)[C@@H](N)C1(CCN(c3cnc(Sc4cc(N)nc(Cl)c4Cl)c(N)n3)CC1)C2 [Compound 253]	8.70	9.00	8.00
CNC(=O)C#Cc1ccc2c(c1)[C@@H](N)C1(CCN(c3cnc(Sc4cc(N)nc(Cl)c4Cl)cn3)CC1)C2 [Compound 254]	8.00	8.52	7.96
CCNC(=O)C#Cc1ccc2c(c1)[C@@H](N)C1(CCN(c3ncc(Sc4ccnc(N)c4Cl)nc3C)CC1)O2 [Compound 259]	8.30	8.40	7.64
CNC(=O)C#Cc1ccc2c(c1)[C@@H](N)C1(CCN(c3cnc(Sc4ccnc(N)n4)cn3)CC1)C2 [Compound 262]	9.00	9.52	8.15
CNC(=O)C#Cc1ccc2c(c1)[C@@H](N)C1(CCN(c3cnc(Sc4ccnc(N)c4F)c(N)n3)CC1)C2 [Compound 264]	9.40	9.22	8.70
CNC(=O)C#Cc1ccc2c(c1)[C@@H](N)C1(CCN(c3cnc(Sc4ccnc(N)c4F)cn3)CC1)C2 [Compound 265]	9.40	9.40	9.05
CNC(=O)C#Cc1ccc2c(c1)[C@@H](N)C1(CCN(c3ncc(Sc4ccnc(N)c4Cl)nc3C)CC1)O2 [Compound 266]	8.00	8.30	7.59
CCNC(=O)C#Cc1ccc2c(c1)[C@@H](N)C1(CCN(c3cnc(Sc4c(F)cnc(N)c4Cl)cn3)CC1)C2 [Compound 269]	8.52	9.05	8.15
NC(=O)C#Cc1ccc2c(c1)[C@@H](N)C1(CCN(c3cnc(Sc4ccnc(N)c4Cl)cn3)CC1)C2 [Compound 270]	9.22	9.40	8.70
Cc1nc(Sc2ccnc(N)c2F)c(N)nc1N1CCC2(CC1)Cc1ccc(C#CC(N)=O)cc1[C@H]2N [Compound 274]	8.52	9.00	8.22
Cc1nc(Sc2ccnc(N)c2Cl)c(N)nc1N1CCC2(CC1)Cc1ccc(C#CC(N)=O)cc1[C@H]2N [Compound 276]	8.52	8.70	8.40
Cc1nc(N2CCC3(CC2)Cc2ccc(C#CC(N)=O)cc2[C@H]3N)cnc1Sc1ccnc(N)c1Cl [Compound 277]	8.30	9.00	7.96
CCNC(=O)C#Cc1ccc2c(c1)[C@@H](N)C1(CCN(c3ncc(Sc4ccnc(N)c4Cl)nc3C#N)CC1)C2 [Compound 278]	7.80	8.30	7.47
Nc1nccc(Sc2cnc(N3CCC4(CC3)Cc3ccc(C#CC(=O)O)cc3[C@H]4N)cn2)c1Cl [Compound 279, (S)-3-(1-amino-1′-(5-((2-amino-3-chloropyridin-4-yl)thio)pyrazin-2-yl)-1,3-dihydrospiro[indene-2,4′-piperidin]-6-yl)propiolic acid]	7.38	9.40	6.74
Cc1nc(N2CCC3(CC2)Cc2ccc(C#CC(N)=O)cc2[C@H]3N)cnc1Sc1cc(N)nc(Cl)c1Cl [Compound 280]	7.46	7.96	7.46
C#Cc1ccc2c(c1)[C@@H](N)C1(CCN(c3nc(N)c(Sc4ccnc(N)c4Cl)c(=O)n3C)CC1)C2 [Compound 282]	8.70	9.00	8.52
Cc1nc(Sc2ccnc(N)c2Cl)c(N)nc1N1CCC2(CC1)Cc1ccc(C#CC(=O)O)cc1[C@H]2N [Compound 283]	6.61	9.00	6.13
C#Cc1ccc2c(c1)[C@@H](N)C1(CCN(c3nc(N)c(-c4cn(C)c5ncccc45)c(=O)n3C)CC1)C2 [Compound 284]	8.40	8.70	8.30

Continued by rising pIC50 [1], values first:

pIC50 [1]	pIC50 [2]	pIC50 [3]	Structure (SMILES)
7.39	7.96	6.86	CCNC(=O)C#Cc1ccc2c(c1)[C@@H](N)C1(CCN(c3cnc(N4CCCc5ncccc54)nn3)CC1)C2 [Compound 244]
7.62	8.00	6.78	Cc1nc(N2CCC3(CC2)Cc2ccc(C#CC(N)=O)cc2[C@H]3N)cnc1Sc1ccnc(N)n1 [Compound 281]
7.82	9.15	7.72	CCNC(=O)C#Cc1ccc2c(c1)[C@@H](N)C1(CCN(c3cnc(N4CCCc5ncccc54)cn3)CC1)C2 [Compound 243, (S)-3-(1-amino-1′-(5-(3,4-dihydro-1,5-naphthyridin-1(2H)-yl)pyrazin-2-yl)-1,3-dihydrospiro[indene-2,4′-piperidin]-6-yl)-N-ethylpropiolamide]
8.22	8.40	7.92	CCNC(=O)C#Cc1ccc2c(c1)[C@@H](N)C1(CCN(c3cnc(Sc4cc(N)nc(Cl)c4Cl)cn3)CC1)C2 [Compound 256]
8.52	8.52	8.10	CCNC(=O)C#Cc1ccc2c(c1)[C@@H](N)C1(CCN(c3cnc(Sc4cc(N)nc(Cl)c4Cl)c(N)n3)CC1)C2 [Compound 255]
8.70	9.00	8.30	CCNC(=O)C#Cc1ccc2c(c1)[C@@H](N)C1(CCN(c3cnc(Sc4ccnc(N)n4)cn3)CC1)C2 [Compound 260]
8.70	9.05	8.15	CCNC(=O)C#Cc1ccc2c(c1)[C@@H](N)C1(CCN(c3ncc(Sc4ccnc(N)n4)nc3C)CC1)C2 [Compound 261]
8.70	9.00	8.40	Cc1nc(Sc2ccnc(N)c2Cl)cnc1N1CCC2(CC1)Cc1ccc(C#CC(N)=O)cc1[C@H]2N [Compound 271]
8.70	9.00	8.30	CCNC(=O)C#Cc1ccc2c(c1)[C@@H](N)C1(CCN(c3cnc(Sc4cc(F)nc(N)c4Cl)cn3)CC1)C2 [Compound 273]
8.70	9.30	8.70	NC(=O)C#Cc1ccc2c(c1)[C@@H](N)C1(CCN(c3cnc(Sc4ccnc(N)c4F)c(N)n3)CC1)C2 [Compound 275]
9.00	9.00	8.52	CCNC(=O)C#Cc1ccc2c(c1)[C@@H](N)C1(CCN(c3cnc(Sc4cc(N)ncc4Cl)c(N)n3)CC1)C2 [Compound 247]
9.40	> 9.30	8.70	CNC(=O)C#Cc1ccc2c(c1)[C@@H](N)C1(CCN(c3cnc(Sc4cccnc4Cl)c(N)n3)CC1)C2 [Compound 248]
9.52	> 9.30	9.00	CCNC(=O)C#Cc1ccc2c(c1)[C@@H](N)C1(CCN(c3cnc(Sc4ccnc(N)c4F)cn3)CC1)C2 [Compound 257]
